The results in this text go back to patent publication US6489292B1, “Stable aqueous insulin preparations without phenol and cresol” (Novo Nordisk A/S, priority 1998, dated 2002).

The target of series [1] is T1, human insulin (Homo sapiens, UniProt P01308).
T1 construct: Insulin derivatives having truncations in the C-terminal of the B-chain; deamidations at A18, A21 and B3
In words: Physical stability of insulin solution at 5° C. by visual inspection for precipitation. Type of series: physicochemical. As to conditions: 0.5 Zn2+/insulin, NaCl 15 mM, glycylglycine 7 mM, tween 20 0.01%, pH 7.5. The procedure:
(§1) 27.5 ml of a 21 mM insulin stock solution was made by dissolving 3.707 g zinc free human insulin in 14 ml water and adding 2888 μl of 0.1 M ZnCl2 and 7 ml water before adjusting pH to 7.5 by 0.2 M NaOH and finally adding water to 27.5 ml, calculating the specific volume of insulin as 0.7 μl/mg. The stock solution was filtrated. A preparation of 3.5 ml 15 mM insulin was then made by adding 23 μl 2.3 M stabiliser in ethanol, 49 μl 0.5 M glycylglycine and 35 μl 1% Tween 20 and water to 3.5 ml. The solution was thereafter diluted with medium containing sodium chloride 15 mM, glycylglycine 7 mM, Tween 20 0.01%, pH 7.5 to 12, 9, 6, 3 and 0.6 mM insulin and stored at 5° C. for visual inspection. The reference solution was made by the same way but without adding a stabiliser. The chemical stability of the insulin solutions were followed at 37° C. for two concentrations, 3 and 15 mM, by determination of covalent insulin polymer by size exclusion chromatography. […] Detection was performed with a tunable absorbance detector (Waters 486) at 276 nm. Injection volume were […] for 3 and 15 mM insulin solutions, respectively.
(§2) 3.26 g human insulin (0.4 equivalent Zn^2+ per insulin) was dispersed in water in 18 ml water on icebath and added 490 μl 0.5 M glycylglycine and 1628 μl sodium hydroxide (3.1 equivalent) and stirred slowly overnight at 5° C. 613 μl 0.1 M zinc chloride (0.1 equivalent of zinc) was then added the solution, pH adjusted to 7.5 by 410 μl 1 M hydrochloric acid (0.8 equivalent of chloride) and the volume adjusted to 25 ml by water. Finally the stock solution of 21 mM insulin was filtrated. 3.57 ml of the stock solution was added 50 μl 1% tween 20, 750 μl 0.1 M stabiliser and 630 μl water to obtain 5 ml 15 mM insulin formulation. Finally the preparation was diluted with medium containing sodium chloride, glycylglycine and detergent to obtain 12, 9, 6, and 3 mM of human insulin and stored at 5° C. for visual inspection. The chemical stability of 3 and 15 mM insulin solutions were followed at 37° C. by determination of covalent insulin polymer by size exclusion chromatography.

Series [2] deals with T1, human insulin. In words: Chemical stability at 37° C.: covalent insulin polymer by size exclusion chromatography. Type of series: physicochemical. The note with it: stabiliser equimolar to insulin, 0.5 Zn2+/insulin, NaCl 15 mM, glycylglycine 7 mM, tween 20 0.01%, pH 7.5. The procedure:
as §1, §2
Background: In gel filtration, larger molecules generally elute earlier.

Where [3] appears, read: example 1, stabiliser equimolar to insulin.
The mark [4] stands for this setting: example 2, stabiliser equimolar to insulin.

T1 sequence (P01308 25-54 limits assumed): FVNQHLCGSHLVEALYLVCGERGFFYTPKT
T1 sequence (P01308 90-110 limits assumed): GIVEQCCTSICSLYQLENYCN

As to `CC1(C)[C@H]2CC[C@H](CO)[C@@H]1C2` (relative stereo) [(−)-trans-myrtanol], in series [1] (setting [3]), the “Physical stability of solution at 4 weeks and 5° C.: maximal insulin concentration at which the solution was without precipitation up to 15 mM (3, 6, 9, 12, 15 mM)” value was 15 mM.
Turning to `CC1(C)C2CCC1(C)C(O)C2` (single isomer, unassigned; (+)) [(+)-borneol], in series [1] (setting [3]), the “Physical stability of solution at 4 weeks and 5° C.: maximal insulin concentration at which the solution was without precipitation up to 15 mM (3, 6, 9, 12, 15 mM)” value worked out at 9 mM. Moreover, the “Chemical stability at 37° C. (% polymer/week), insulin solution of 3 mM” value in series [2] (example 1, 3 mM insulin) is given as 0.47 % polymer/week. The “Chemical stability at 37° C. (% polymer/week), insulin solution of 15 mM” value in series [2] (example 1, 15 mM insulin) turned out to be 0.61 % polymer/week.
For `CC1(C)C2CCC1(C)C(O)C2` (single isomer, unassigned; (-)) [(−)-borneol], in that order: 9 mM, 0.43 % polymer/week and 0.47 % polymer/week.
`CC1C(O)CC2CC1C2(C)C` (single isomer, unassigned; (-)) [(−)-isopinocampheol]: in series [1] (setting [3]), the “Physical stability of solution at 4 weeks and 5° C.: maximal insulin concentration at which the solution was without precipitation up to 15 mM (3, 6, 9, 12, 15 mM)” value is recorded as 15 mM.
For `CC1(C)[C@H]2CC[C@](C)(C2)[C@H]1O` [(+)-fenchol], the “Physical stability of solution at 4 weeks and 5° C.: maximal insulin concentration at which the solution was without precipitation up to 15 mM (3, 6, 9, 12, 15 mM)” value in series [1] (setting [3]) is 15 mM. Further, in series [2] (example 1, 3 mM insulin), the “Chemical stability at 37° C. (% polymer/week), insulin solution of 3 mM” value was 0.50 % polymer/week. Besides, the “Chemical stability at 37° C. (% polymer/week), insulin solution of 15 mM” value in series [2] (example 1, 15 mM insulin) is recorded as 0.97 % polymer/week.
Take `C[C@@H]1[C@@H](O)C[C@H]2C[C@@H]1C2(C)C` [(+)-isopinocampheol]: the “Physical stability of solution at 4 weeks and 5° C.: maximal insulin concentration at which the solution was without precipitation up to 15 mM (3, 6, 9, 12, 15 mM)” value in series [1] (setting [3]) was 12 mM.
`Nc1ncnc2nc[nH]c12` [adenine]: the “Physical stability of solution at 4 weeks and 5° C.: maximal insulin concentration at which the solution was without precipitation up to 15 mM (3, 6, 9, 12, 15 mM)” value in series [1] (setting [4]) turned out to be 9 mM. Further, the “Chemical stability at 37° C. (% polymer/week), insulin solution of 3 mM” value in series [2] (example 2, 3 mM insulin) is 0.59 % polymer/week. In addition, in series [2] (example 2, 15 mM insulin), the “Chemical stability at 37° C. (% polymer/week), insulin solution of 15 mM” value is 0.77 % polymer/week.
For `Oc1ccccc1` [phenol], the “Physical stability of solution at 4 weeks and 5° C.: maximal insulin concentration at which the solution was without precipitation up to 15 mM (3, 6, 9, 12, 15 mM)” value in series [1] (setting [3]) and in series [1] (setting [4]) was 15 mM in each case. In addition, the “Chemical stability at 37° C. (% polymer/week), insulin solution of 3 mM” value amounted to 0.37 % polymer/week in series [2] (example 1, 3 mM insulin) and 0.32 % polymer/week in series [2] (example 2, 3 mM insulin). Further, the “Chemical stability at 37° C. (% polymer/week), insulin solution of 15 mM” value in series [2] (example 1, 15 mM insulin) is reported as 0.39 % polymer/week; in series [2] (example 2, 15 mM insulin) it was 0.29 % polymer/week.
In the case of `c1ncc2[nH]cnc2n1` [purine], the “Physical stability of solution at 4 weeks and 5° C.: maximal insulin concentration at which the solution was without precipitation up to 15 mM (3, 6, 9, 12, 15 mM)” value in series [1] (setting [4]) is on record as 15 mM. In series [2] (example 2, 3 mM insulin), the “Chemical stability at 37° C. (% polymer/week), insulin solution of 3 mM” value stood at 0.58 % polymer/week. The “Chemical stability at 37° C. (% polymer/week), insulin solution of 15 mM” value in series [2] (example 2, 15 mM insulin) is recorded as 0.71 % polymer/week.
